From US4251439A, “Pharmacologically active peptides” (Eli Lilly and Company, priority 1979, dated 1981)
Where a SMILES comes first, the peptide text is derived from it. Where no end group is shown, it is not given here. [ ]: non-standard residue; d: D form. Phg(4-OMe) = COc1ccc([C@H](N)C(=O)O)cc1; dPhg = N[C@@H](C(=O)O)c1ccccc1; Phg = N[C@H](C(=O)O)c1ccccc1

Tested on: mouse
Experiment: mouse hot plate test (analgesic activity)
Assay type: in vivo
Conditions: subcutaneous, hot plate 52° C., 15 minutes after administration, latency until jump
Description: In this test, a mouse is placed inside an upright acrylic cylinder comprising, as its base, a hot plate surface which is maintained at 52° C. The mouse is given, orally or by subcutaneous injection, a predetermined amount of test compound dissolved or suspended in a suitable carrier, and, 15 minutes after administration of the test compound, the mouse is placed on the hot plate surface. The latency in seconds until the mouse jumps from the hot plate surface is measured. […] This must occur in a dose range which produces no motor incoordination or incapacitation. The following Table records the ED50 results obtained from this test.

Compound | Analgesic Activity, Hot Plate Test ED50
COc1ccc([C@H](NC(=O)[C@H](Cc2ccccc2)NC(=O)CNC(=O)[C@@H](C)NC(=O)[C@@H](N)Cc2ccc(O)cc2)C(N)=O)cc1 [Example 1, L-Tyrosyl-D-alanyl-glycyl-L-phenylalanyl-L-p-methoxyphenylglycinamide] (H-Y[dA]GF[Phg(4-OMe)]-NH2) | 3.14 mg/kg
C[C@@H](NC(=O)[C@@H](N)Cc1ccc(O)cc1)C(=O)NCC(=O)N[C@@H](Cc1ccccc1)C(=O)N[C@H](C(N)=O)c1ccccc1 [Example 2, L-Tyrosyl-D-alanyl-glycyl-L-phenylalanyl-L-phenylglycinamide] (H-Y[dA]GF[Phg]-NH2) | 0.40 mg/kg
C[C@@H](NC(=O)[C@@H](N)Cc1ccc(O)cc1)C(=O)NCC(=O)N[C@@H](Cc1ccccc1)C(=O)N[C@@H](C(N)=O)c1ccccc1 [Example 3, L-Tyrosyl-D-alanyl-glycyl-L-phenylalanyl-D-phenylglycinamide] (H-Y[dA]GF[dPhg]-NH2) | 0.23 mg/kg
C[C@@H](NC(=O)[C@@H](N)Cc1ccc(O)cc1)C(=O)NCC(=O)N(C)[C@@H](Cc1ccccc1)C(=O)N[C@H](C(N)=O)c1ccccc1 [Example 6, L-Tyrosyl-D-alanyl-glycyl-L-(N-methyl)phenylalanyl-L-phenylglycinamide] | 0.19 mg/kg
C[C@@H](NC(=O)[C@@H](N)Cc1ccc(O)cc1)C(=O)NCC(=O)N(C)[C@@H](Cc1ccccc1)C(=O)N[C@@H](C(N)=O)c1ccccc1 [Example 7, L-Tyrosyl-D-alanyl-glycyl-L-(N-methyl)phenylalanyl-D-phenylglycinamide] | 3.82 mg/kg
CCN(C(=O)CNC(=O)[C@@H](C)NC(=O)[C@@H](N)Cc1ccc(O)cc1)[C@@H](Cc1ccccc1)C(=O)N[C@H](C(N)=O)c1ccccc1 [Example 8, L-Tyrosyl-D-alanyl-glycyl-L-(N-ethyl)phenylalanyl-L-phenylglycinamide] | 0.064 mg/kg
CCCN(C(=O)CNC(=O)[C@@H](C)NC(=O)[C@@H](N)Cc1ccc(O)cc1)[C@@H](Cc1ccccc1)C(=O)N[C@H](C(N)=O)c1ccccc1 [Example 9, L-Tyrosyl-D-alanyl-glycyl-L-(N-n-propyl)phenylalanyl-L-phenylglycinamide] | 0.15 mg/kg
L-Tyrosyl-D-alanyl-glycyl-L-phenylalanyl-D-p-hydroxyphenylglycinamide [Example 4] | 1.0 mg/kg
L-Tyrosyl-D-alanyl-glycyl-L-phenylalanyl-D-phenylglycin-N-methylamide [Example 5] | 0.74 mg/kg

Tested on: mice
Experiment: not given
Conditions: administration intracerebroventricularly; cited from earlier work

Compound | analgesic activity
H-Tyr-Gly-Gly-Phe-Met-OH [methionine enkephalin] | exhibit analgesic activity

Tested on: not given
Experiment: not given
Conditions: in vivo; cited from earlier work

Compound | analgesic potential
Y[dA]GF[dF]-OH | limited analgesic potential

Tested on: not given
Experiment: not given
Conditions: administered parenterally; cited from earlier work

Compound | useful analgesic activity
H-Tyr-Gly-Gly-Phe-Met-OH [methionine enkephalin] | practically devoid of any useful analgesic activity
